Laboratory results from patent US8268990B2, “Compounds” (AstraZeneca AB, priority 2007, dated 2012).

Each compound was assayed against T1, Recombinant human TLR7 (Homo sapiens, UniProt Q9NYK1) (assay: Human TLR7 Assay (SEAP reporter)). Details: HEK293 cell line stably expressing human TLR7 and pNiFty2-SEAP reporter; SEAP induction after overnight incubation at 37° C., 0.1% (v/v) DMSO.
T1 construct: expressed in transfected cells; host or cells: HEK293 cell line stably expressing the pNiFty2-SEAP reporter plasmid; TLR7 in vector pUNO, blasticidin selection
T1 sequence (Q9NYK1 27-1049): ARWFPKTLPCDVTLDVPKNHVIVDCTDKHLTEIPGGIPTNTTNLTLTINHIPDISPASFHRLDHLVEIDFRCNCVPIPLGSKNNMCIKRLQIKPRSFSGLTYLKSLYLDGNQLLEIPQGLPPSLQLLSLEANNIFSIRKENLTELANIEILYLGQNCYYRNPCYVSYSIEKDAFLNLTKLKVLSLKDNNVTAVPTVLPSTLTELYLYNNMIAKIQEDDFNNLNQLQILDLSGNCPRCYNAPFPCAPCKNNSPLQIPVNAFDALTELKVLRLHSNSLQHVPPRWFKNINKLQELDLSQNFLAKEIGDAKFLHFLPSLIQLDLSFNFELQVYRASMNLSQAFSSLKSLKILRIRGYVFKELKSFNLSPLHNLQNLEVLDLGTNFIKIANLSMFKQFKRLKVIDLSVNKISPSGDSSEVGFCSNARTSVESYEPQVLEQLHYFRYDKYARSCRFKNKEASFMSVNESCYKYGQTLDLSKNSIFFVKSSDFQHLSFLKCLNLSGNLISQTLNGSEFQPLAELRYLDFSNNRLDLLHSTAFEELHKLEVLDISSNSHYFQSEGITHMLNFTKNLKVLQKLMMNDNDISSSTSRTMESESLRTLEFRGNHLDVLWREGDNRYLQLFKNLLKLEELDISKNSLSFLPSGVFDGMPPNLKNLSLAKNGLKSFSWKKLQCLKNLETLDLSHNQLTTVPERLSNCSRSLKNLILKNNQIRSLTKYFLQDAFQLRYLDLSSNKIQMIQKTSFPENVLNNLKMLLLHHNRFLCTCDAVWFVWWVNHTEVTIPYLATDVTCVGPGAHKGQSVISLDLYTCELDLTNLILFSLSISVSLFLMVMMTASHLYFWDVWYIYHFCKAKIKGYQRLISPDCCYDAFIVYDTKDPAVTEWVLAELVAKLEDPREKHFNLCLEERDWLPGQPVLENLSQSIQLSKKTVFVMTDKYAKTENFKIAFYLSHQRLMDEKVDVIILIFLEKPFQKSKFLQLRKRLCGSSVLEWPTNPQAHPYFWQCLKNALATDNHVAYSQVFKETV
Assay type: cell-based
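Also: SEAP driven by an NFkB-responsive composite promoter, pEC50 read at half of each compound's own maximal SEAP induction.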
Excerpt: Recombinant human TLR7 was stably expressed in a HEK293 cell line already stably expressing the pNiFty2-SEAP reporter plasmid; integration of the reporter gene was maintained by selection with the antibiotic zeocin. The most common variant sequence of human TLR7 (represented by the EMBL sequence AF240467) was cloned into the mammalian cell expression vector pUNO and transfected into this reporter cell-line. Transfectants with stable expression were selected using the antibiotic blasticidin. In this reporter cell-line, expression of secreted alkaline phosphatase (SEAP) is controlled by an NFkB/ELAM-1 composite promoter comprising five NFkB sites combined with the proximal ELAM-1 promoter. TLR signaling leads to the translocation of NFkB and activation of the promoter results in expression of the SEAP gene. TLR7-specific activation was assessed by determining the level of SEAP produced following overnight incubation of the cells at 37° C. with the standard compound in the presence of 0.1% (v/v) dimethylsulfoxide (DMSO). Concentration dependent induction of SEAP production by compounds was expressed as the concentration of compound which produced half of the maximal level of SEAP induction for that compound (pEC50).

Structure (SMILES)	EC50
CCCC[C@@H](CCO)Nc1nc(N)nc(C)c1Cc1ccc(CC(=O)OC)cc1OC [Example 31, (S)-Methyl 2-(4-((2-amino-4-(1-hydroxyheptan-3-ylamino)-6-methylpyrimidin-5-yl)methyl)-3-methoxyphenyl)acetate]	6.31 nM
CCCC[C@@H](CO)Nc1nc(N)nc(C)c1Cc1ccc(CC(=O)OC)cc1OC [Example 32, (S)-Methyl 2-(4-((2-amino-4-(1-hydroxyhexan-2-ylamino)-6-methylpyrimidin-5-yl)methyl)-3-methoxyphenyl)acetate]	50.1 nM
CCCC[C@@H](CCO)Nc1nc(N)nc(C)c1Cc1ccc(CC(=O)OC)cc1F [Example 33, (S)-Methyl 2-(4-((2-amino-4-(1-hydroxyheptan-3-ylamino)-6-methylpyrimidin-5-yl)methyl)-3-fluorophenyl)acetate]	50.1 nM
CCCCCNc1nc(N)nc(C)c1Cc1ccc(CC(=O)OCCN2CCOCC2)cc1 [Example 35, 2-Morpholinoethyl 2-(4-((2-amino-4-methyl-6-(pentylamino)pyrimidin-5-yl)methyl)phenyl)acetate]	251 nM
CCCCCNc1nc(N)nc(C)c1Cc1ccc(CC(=O)OCCN(C)C)cc1 [Example 36, 2-(Dimethylamino)ethyl 2-(4-((2-amino-4-methyl-6-(pentylamino)pyrimidin-5-yl)methyl)phenyl)acetate]	251 nM
CCCCCNc1nc(N)nc(C)c1Cc1ccc(CC(=O)OCCCN(C)C)cc1 [Example 37, 3-(Dimethylamino)propyl 2-(4-((2-amino-4-methyl-6-(pentylamino)pyrimidin-5-yl)methyl)phenyl)acetate]	126 nM
CCCCCNc1nc(N)nc(C)c1Cc1ccc(CC(=O)OCCN2CCN(C)CC2)cc1 [Example 38, 2-(4-Methylpiperazin-1-yl)ethyl 2-(4-((2-amino-4-methyl-6-(pentylamino)pyrimidin-5-yl)methyl)phenyl)acetate]	126 nM
CCCCCNc1nc(N)nc(C)c1Cc1cc(CC(=O)OC)ccc1O [Example 39, Methyl 2-(3-((2-amino-4-methyl-6-(pentylamino)pyrimidin-5-yl)methyl)-4-hydroxyphenyl)acetate]	100 nM
CCCCCNc1nc(N)nc(C)c1Cc1ccc(OCC(=O)OC)cc1OC [Example 40, Methyl 2-(4-((2-amino-4-methyl-6-(pentylamino)pyrimidin-5-yl)methyl)-3-methoxyphenoxy)acetate]	126 nM
CCCCNc1nc(N)nc(C)c1Cc1ccc(CC(=O)OC)cc1 [Example 41, Methyl 2-(4-((2-amino-4-(butylamino)-6-methylpyrimidin-5-yl)methyl)phenyl)acetate]	1000 nM
CCC[C@@H](CCO)Nc1nc(N)nc(C)c1Cc1cc(CC(=O)OC)ccc1F [Example 42, (S)-Methyl 2-(3-((2-amino-4-(1-hydroxyhexan-3-ylamino)-6-methylpyrimidin-5-yl)methyl)-4-fluorophenyl)acetate]	631 nM
CCC[C@@H](CO)Nc1nc(N)nc(C)c1Cc1ccc(CC(=O)OC)cc1 [Example 43, (S)-Methyl 2-(4-((2-amino-4-(1-hydroxypentan-2-ylamino)-6-methylpyrimidin-5-yl)methyl)phenyl)acetate]	794 nM
CCCC[C@@H](CO)Nc1nc(N)nc(C)c1Cc1ccc(CC(=O)OC)cc1 [Example 44, (S)-Methyl 2-(4-((2-amino-4-(1-hydroxyhexan-2-ylamino)-6-methylpyrimidin-5-yl)methyl)phenyl)acetate]	631 nM
CCC[C@@H](CCO)Nc1nc(N)nc(C)c1Cc1ccc(CC(=O)OC)cc1F [Example 45, (S)-Methyl 2-(4-((2-amino-4-(1-hydroxyhexan-3-ylamino)-6-methylpyrimidin-5-yl)methyl)-3-fluorophenyl)acetate]	50.1 nM
CCC[C@@H](CO)Nc1nc(N)nc(C)c1Cc1ccc(CC(=O)OC)cc1F [Example 47, (S)-Methyl 2-(4-((2-amino-4-(1-hydroxypentan-2-ylamino)-6-methylpyrimidin-5-yl)methyl)-3-fluorophenyl)acetate]	501 nM
CCC[C@@H](CCO)Nc1nc(N)nc(C)c1Cc1ccc(CC(=O)OC)cc1OC [Example 48, (S)-Methyl 2-(4-((2-amino-4-(1-hydroxyhexan-3-ylamino)-6-methylpyrimidin-5-yl)methyl)-3-methoxyphenyl)acetate]	2 nM

Structure (SMILES)	EC50
CCC[C@@H](CCO)Nc1nc(N)nc(C)c1Cc1ccc(CC(=O)OC)cc1 [Example 49, (S)-Methyl 2-(4-((2-amino-4-(1-hydroxyhexan-3-ylamino)-6-methylpyrimidin-5-yl)methyl)phenyl)acetate]	200 nM
CCCC[C@@H](CCO)Nc1nc(N)nc(C)c1Cc1ccc(CC(=O)OC)cc1 [Example 50, (S)-Methyl 2-(4-((2-amino-4-(1-hydroxyheptan-3-ylamino)-6-methylpyrimidin-5-yl)methyl)phenyl)acetate]	158 nM
CCCCCNc1nc(N)nc(C)c1CCCN(Cc1ccc(CC(=O)OC)cc1)C(=O)C1CCN(C)CC1 [Example 51, Methyl 2-(4-((N-(3-(2-amino-4-methyl-6-(pentylamino)pyrimidin-5-yl)propyl)-1-methylpiperidine-4-carboxamido)methyl)phenyl)acetate]	794 nM
CCCCCNc1nc(N)nc(C)c1CCCN(Cc1ccc(CC(=O)OC)cc1)C(=O)CSC [Example 52, Methyl 2-(4-((N-(3-(2-amino-4-methyl-6-(pentylamino)pyrimidin-5-yl)propyl)-2-(methylthio)acetamido)methyl)phenyl)acetate]	631 nM
CC[C@H](O)CNc1nc(N)nc(C)c1Cc1ccc(CC(=O)OC)cc1OC [Example 53, (S)-Methyl 2-(4-((2-amino-4-(2-hydroxybutylamino)-6-methylpyrimidin-5-yl)methyl)-3-methoxyphenyl)acetate]	39.8 nM
CCCCCNc1nc(N)nc(C)c1Cc1cc(CC(=O)OC)ccc1OC [Example 54, Methyl 2-(3-((2-amino-4-methyl-6-(pentylamino)pyrimidin-5-yl)methyl)-4-methoxyphenyl)acetate]	79.4 nM
CCCCCNc1nc(N)nc(C)c1Cc1ccc(CC(=O)OCC(C)(C)CN(C)C)cc1 [Example 55, 3-(Dimethylamino)-2,2-dimethylpropyl 2-(4-((2-amino-4-methyl-6-(pentylamino)pyrimidin-5-yl)methyl)phenyl)acetate]	126 nM
CCCCCNc1nc(N)nc(C)c1Cc1ccc(CC(=O)OCCCN2CCN(C)CC2)cc1 [Example 56, 3-(4-Methylpiperazin-1-yl)propyl 2-(4-((2-amino-4-methyl-6-(pentylamino)pyrimidin-5-yl)methyl)phenyl)acetate]	251 nM
CCCCCNc1nc(N)nc(C)c1Cc1ccc(CC(=O)OCCCCN(C)C)cc1 [Example 57, 4-(Dimethylamino)butyl 2-(4-((2-amino-4-methyl-6-(pentylamino)pyrimidin-5-yl)methyl)phenyl)acetate]	126 nM
CCCCCNc1nc(N)nc(C)c1Cc1ccc(CC(=O)OCCCN2CCOCC2)cc1 [Example 58, 3-Morpholinopropyl 2-(4-((2-amino-4-methyl-6-(pentylamino)pyrimidin-5-yl)methyl)phenyl)acetate]	126 nM
CCCCCNc1nc(N)nc(C)c1Cc1ccc(CC(=O)OC2CCN(C)CC2)cc1 [Example 59, 1-Methylpiperidin-4-yl 2-(4-((2-amino-4-methyl-6-(pentylamino)pyrimidin-5-yl)methyl)phenyl)acetate]	126 nM
CCCCCNc1nc(N)nc(C)c1Cc1ccc(CC(=O)OCC2CCN(C)CC2)cc1 [Example 60, (1-Methylpiperidin-4-yl)methyl 2-(4-((2-amino-4-methyl-6-(pentylamino)pyrimidin-5-yl)methyl)phenyl)acetate]	200 nM
CCCCCNc1nc(N)nc(C)c1Cc1ccc(CC(=O)OCCCCN2CCCC2)cc1 [Example 61, 4-(Pyrrolidin-1-yl)butyl 2-(4-((2-amino-4-methyl-6-(pentylamino)pyrimidin-5-yl)methyl)phenyl)acetate]	126 nM
CCCCCNc1nc(N)nc(C)c1Cc1ccc(CC(=O)OCC2CCN(CCOC)CC2)cc1 [Example 62, (1-(2-Methoxyethyl)piperidin-4-yl)methyl 2-(4-((2-amino-4-methyl-6-(pentylamino)pyrimidin-5-yl)methyl)phenyl)acetate]	200 nM
CCCCCNc1nc(N)nc(C)c1Cc1ccc(CC(=O)OCCCCN2CCN(C)CC2)cc1 [Example 63, 4-(4-Methylpiperazin-1-yl)butyl 2-(4-((2-amino-4-methyl-6-(pentylamino)pyrimidin-5-yl)methyl)phenyl)acetate]	158 nM
